# Test results from ChEMBL document CHEMBL1201862, “PubChem BioAssay data set” (2004).
# The source made the active and inactive calls.
# Columns and labels:
# Protein skinhead-1 = target: T1, Protein skinhead-1 (Caenorhabditis elegans, UniProt P34707); assay type: functional
# T1 sequence (P34707 whole entry): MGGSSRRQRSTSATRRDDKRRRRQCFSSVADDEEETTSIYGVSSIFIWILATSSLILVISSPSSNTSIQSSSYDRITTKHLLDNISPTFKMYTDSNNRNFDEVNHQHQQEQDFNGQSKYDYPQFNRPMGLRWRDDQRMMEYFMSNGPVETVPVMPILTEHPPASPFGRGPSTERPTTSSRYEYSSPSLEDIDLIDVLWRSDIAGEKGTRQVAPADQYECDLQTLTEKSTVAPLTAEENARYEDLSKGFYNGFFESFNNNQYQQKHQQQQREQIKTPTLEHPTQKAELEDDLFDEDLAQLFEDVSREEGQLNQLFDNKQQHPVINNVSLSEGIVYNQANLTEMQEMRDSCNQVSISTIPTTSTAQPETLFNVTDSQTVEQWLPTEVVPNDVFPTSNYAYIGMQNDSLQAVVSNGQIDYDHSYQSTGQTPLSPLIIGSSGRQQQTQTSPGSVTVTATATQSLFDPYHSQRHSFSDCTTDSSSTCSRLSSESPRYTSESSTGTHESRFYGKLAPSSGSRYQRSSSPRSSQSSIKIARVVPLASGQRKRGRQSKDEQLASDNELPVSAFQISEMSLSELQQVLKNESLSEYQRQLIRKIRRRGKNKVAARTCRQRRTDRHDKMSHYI
# [1] = target: T2, Corticotropin-releasing factor receptor 2/Corticotropin-releasing factor-binding protein (Homo sapiens, UniProt P24387+Q13324); assay: activators of CRF receptor 2 with binding protein – uHTS hits, confirmation (AID 602473); assay type: functional; conditions: read-out: EC50_Mean
# T2 sequence (Q13324 whole entry): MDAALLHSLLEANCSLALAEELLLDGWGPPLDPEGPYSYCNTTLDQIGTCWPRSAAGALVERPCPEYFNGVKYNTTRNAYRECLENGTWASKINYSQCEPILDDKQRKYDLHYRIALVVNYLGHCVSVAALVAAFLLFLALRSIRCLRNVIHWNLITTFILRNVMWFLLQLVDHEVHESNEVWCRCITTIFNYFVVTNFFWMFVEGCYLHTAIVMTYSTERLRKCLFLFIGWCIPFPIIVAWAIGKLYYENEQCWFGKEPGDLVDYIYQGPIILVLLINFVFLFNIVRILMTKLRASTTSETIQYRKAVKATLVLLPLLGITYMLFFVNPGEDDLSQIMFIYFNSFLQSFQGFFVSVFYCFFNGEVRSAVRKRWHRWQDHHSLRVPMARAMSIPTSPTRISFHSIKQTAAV
# T2 sequence (P24387 whole entry): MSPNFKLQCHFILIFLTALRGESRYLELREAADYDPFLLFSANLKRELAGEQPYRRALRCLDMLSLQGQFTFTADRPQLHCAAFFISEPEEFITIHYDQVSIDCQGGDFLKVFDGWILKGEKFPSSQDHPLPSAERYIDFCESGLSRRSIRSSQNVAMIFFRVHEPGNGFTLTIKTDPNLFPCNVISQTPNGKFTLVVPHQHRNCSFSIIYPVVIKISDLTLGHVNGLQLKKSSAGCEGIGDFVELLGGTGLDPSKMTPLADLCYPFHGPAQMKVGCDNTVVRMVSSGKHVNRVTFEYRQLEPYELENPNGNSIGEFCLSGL
# H9c2 = assay: cells; assay type: functional, cell-based; conditions: Rattus norvegicus, H9c2, Myocardium;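 further: confirmatory concentration-response retest of ultra-high-throughput screening hits for modulation of myocardial damage; cell death induced by hydrogen peroxide oxidative stress; compound pretreatment for 60 min then peroxide exposure for 2 h; potency is for protecting the cells against peroxide damage rather than for killing them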
# [2] = target: T3, Heat shock factor protein 1 (Mus musculus, UniProt P38532); assay: inhibition of MG132-induced HSE-luciferase signal, confirmation, cell-based, NIH3T3, luminescence, dose retest (AID 2382); assay type: functional;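 further: NIH3T3 fibroblasts with HSF1-driven luciferase reporter stressed by proteasome inhibitor MG132; luminescence from HSF1-driven luciferase expression after 8 hours of MG132 stress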
# T3 sequence (P38532 whole entry): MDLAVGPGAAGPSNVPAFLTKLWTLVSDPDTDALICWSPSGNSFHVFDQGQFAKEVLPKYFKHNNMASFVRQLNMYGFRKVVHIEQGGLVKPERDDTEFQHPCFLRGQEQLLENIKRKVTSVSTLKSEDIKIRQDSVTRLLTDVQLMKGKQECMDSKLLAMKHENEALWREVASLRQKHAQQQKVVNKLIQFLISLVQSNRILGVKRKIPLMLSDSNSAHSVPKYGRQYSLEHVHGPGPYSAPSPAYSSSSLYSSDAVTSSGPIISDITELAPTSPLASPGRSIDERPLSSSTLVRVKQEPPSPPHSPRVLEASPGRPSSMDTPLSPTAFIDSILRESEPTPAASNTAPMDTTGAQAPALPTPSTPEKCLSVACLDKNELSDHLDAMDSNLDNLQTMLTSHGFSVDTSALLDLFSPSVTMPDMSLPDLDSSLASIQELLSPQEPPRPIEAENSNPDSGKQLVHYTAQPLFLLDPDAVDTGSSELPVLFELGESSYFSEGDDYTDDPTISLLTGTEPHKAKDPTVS
# [3] = target: T4, Polyadenylate-binding protein 1 (Homo sapiens, UniProt P11940); assay: PABP1 MLLE–PAM2 interaction inhibitors, dose response, miRNA deadenylation inhibitor project, biochemical, fluorescence polarization, Cy5-PAM2 peptide, secondary (AID 602260); assay type: functional; conditions: read-out: IC50_Mean
# [4] = target: T4, Polyadenylate-binding protein 1; assay: PABP1 MLLE–PAM2 binding inhibitor potency, dose response, biochemical, fluorescence polarization, FITC-PAM2 peptide (AID 602259); assay type: functional; conditions: read-out: IC50_Mean
# [5] = NIH-3T3 fibroblast cytotoxicity, dose response, cytotoxicity control, cell-based, fluorescence, Alamar Blue, secondary assay (AID 2327); assay type: functional;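 further: NIH-3T3 mouse fibroblasts cultured with fluconazole at 8 µg/mL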
# [6] = target: T5, RNA-binding protein pos-1 (Caenorhabditis elegans, UniProt G5EF15); assay: inhibitors of POS-1/mex-3 RNA binding, dose response, biochemical, fluorescence polarization (AID 1964);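 further: purified POS-1 fused to maltose binding protein made in E. coli; potency of compounds blocking POS-1 binding to fluorescent RNA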
# T5 sequence (G5EF15 whole entry): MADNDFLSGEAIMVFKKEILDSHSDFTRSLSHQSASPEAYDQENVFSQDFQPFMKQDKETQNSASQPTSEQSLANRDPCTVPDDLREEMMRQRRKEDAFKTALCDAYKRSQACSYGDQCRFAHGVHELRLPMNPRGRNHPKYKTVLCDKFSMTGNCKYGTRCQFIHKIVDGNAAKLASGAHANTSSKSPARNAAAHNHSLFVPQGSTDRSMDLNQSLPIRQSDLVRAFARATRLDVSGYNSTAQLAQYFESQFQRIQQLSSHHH
# [7] = target: T6, Zinc finger protein mex-5 (Caenorhabditis elegans, UniProt Q9XUB2); assay: MEX-5/TCR-2 RNA interaction inhibitors, dose response, biochemical, C. elegans, fluorescence polarization (AID 1960)
# T6 sequence (Q9XUB2 whole entry): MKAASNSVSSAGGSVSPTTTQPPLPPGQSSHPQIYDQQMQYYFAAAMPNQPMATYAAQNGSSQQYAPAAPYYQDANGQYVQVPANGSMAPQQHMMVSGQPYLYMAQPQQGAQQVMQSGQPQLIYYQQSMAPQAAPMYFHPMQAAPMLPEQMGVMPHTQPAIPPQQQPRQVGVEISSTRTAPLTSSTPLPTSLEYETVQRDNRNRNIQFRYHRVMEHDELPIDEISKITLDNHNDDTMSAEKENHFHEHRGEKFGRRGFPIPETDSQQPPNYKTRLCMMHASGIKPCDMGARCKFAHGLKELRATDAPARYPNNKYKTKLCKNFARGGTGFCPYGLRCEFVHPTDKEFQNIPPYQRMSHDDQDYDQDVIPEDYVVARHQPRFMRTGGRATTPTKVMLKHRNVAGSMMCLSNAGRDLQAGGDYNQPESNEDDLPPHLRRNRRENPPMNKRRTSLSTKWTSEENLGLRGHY
# [8] = C. albicans growth with fluconazole, confirmation, fluorescence, retest (AID 2467); assay type: functional, cell-based
# [9] = target: T3, Heat shock factor protein 1; assay: HSF1 potentiators in luciferase reporter cells, confirmation, cell-based, NIH3T3, luminescence, dose retest (AID 435004); assay type: functional;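 further: stress induced by proteasome inhibitor MG132 added 30 min after compound; luciferase reporter driven by HSF1 response element in NIH3T3 cells; actives raise luminescence as potentiators of the MG132 stress response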
# [10] = target: T7, Rac GTPase-activating protein 1 (Homo sapiens, UniProt Q9H0H5); assay: MgcRacGAP GTPase-activating activity inhibitors, confirmation, biochemical, ADP Hunter fluorescence, primary and confirmatory (AID 624330); assay type: functional
# T7 sequence (Q9H0H5 whole entry): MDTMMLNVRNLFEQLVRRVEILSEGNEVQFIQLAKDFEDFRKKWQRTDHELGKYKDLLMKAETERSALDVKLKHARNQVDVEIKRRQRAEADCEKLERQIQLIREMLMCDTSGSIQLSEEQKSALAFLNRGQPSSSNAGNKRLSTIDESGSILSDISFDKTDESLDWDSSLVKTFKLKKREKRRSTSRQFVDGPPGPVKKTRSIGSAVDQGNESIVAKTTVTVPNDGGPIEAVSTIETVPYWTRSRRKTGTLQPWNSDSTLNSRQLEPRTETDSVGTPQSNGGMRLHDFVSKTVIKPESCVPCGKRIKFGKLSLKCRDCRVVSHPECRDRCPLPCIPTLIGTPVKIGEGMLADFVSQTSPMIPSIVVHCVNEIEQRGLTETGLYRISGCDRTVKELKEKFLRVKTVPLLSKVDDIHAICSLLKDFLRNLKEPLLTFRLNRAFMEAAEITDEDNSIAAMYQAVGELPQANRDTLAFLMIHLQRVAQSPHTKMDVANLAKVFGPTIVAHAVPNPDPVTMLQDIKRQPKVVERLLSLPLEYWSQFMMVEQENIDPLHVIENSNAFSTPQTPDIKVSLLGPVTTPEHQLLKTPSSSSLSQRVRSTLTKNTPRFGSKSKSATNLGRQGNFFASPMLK
# T4 sequence (P11940 whole entry): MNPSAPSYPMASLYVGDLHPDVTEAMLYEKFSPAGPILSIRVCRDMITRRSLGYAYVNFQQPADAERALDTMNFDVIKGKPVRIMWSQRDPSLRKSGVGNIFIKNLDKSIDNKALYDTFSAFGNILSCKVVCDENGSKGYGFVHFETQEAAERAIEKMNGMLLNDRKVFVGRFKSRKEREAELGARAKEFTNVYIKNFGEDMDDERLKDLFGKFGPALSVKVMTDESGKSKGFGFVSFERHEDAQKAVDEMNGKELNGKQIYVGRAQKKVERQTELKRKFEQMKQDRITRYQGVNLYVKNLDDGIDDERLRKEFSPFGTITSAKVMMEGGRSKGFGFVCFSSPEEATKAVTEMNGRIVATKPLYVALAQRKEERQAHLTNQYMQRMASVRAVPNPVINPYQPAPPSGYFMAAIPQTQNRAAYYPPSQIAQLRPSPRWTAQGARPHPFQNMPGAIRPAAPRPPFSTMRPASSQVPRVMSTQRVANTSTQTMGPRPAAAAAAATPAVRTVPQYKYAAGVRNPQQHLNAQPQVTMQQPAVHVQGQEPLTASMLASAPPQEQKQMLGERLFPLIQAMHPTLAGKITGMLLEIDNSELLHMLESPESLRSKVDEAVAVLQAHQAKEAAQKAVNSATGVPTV
IC50 [3],IC50 [4],SMILES,IC50 (H9c2),other results
> 66 µM (inactive),> 66 µM (inactive),Cc1onc(-c2ccccc2)c1C(=O)NC(=S)NNC(=O)c1ccncc1,,
> 66 µM (inactive),> 66 µM (inactive),CC(C)c1ccc(N2C(=O)CC(Sc3ncccn3)C2=O)cc1 (stereo not given),,
> 66 µM (inactive),> 66 µM (inactive),NS(=O)(=O)c1ccc(NC(S)=Nc2ccc(S(=O)(=O)N3CCCC3)cc2)cc1,,
> 66 µM (inactive),> 66 µM (inactive),CCCCN(C(=S)NC(=O)c1ccccc1)c1c(N)n(Cc2ccccc2)c(=O)[nH]c1=O,,
> 66 µM (inactive),> 66 µM (inactive),O=C(NC(=S)Nc1ccc(S(=O)(=O)Nc2nccs2)cc1)c1ccccc1,,
> 66 µM (inactive),> 66 µM (inactive),O=C(O)c1ccc(Cl)c(NC(=S)NC(=O)c2ccccc2[N+](=O)[O-])c1,,
> 66 µM (inactive),> 66 µM (inactive),COc1ccc(N2C(=O)CC(SCCc3nc4ccccc4[nH]3)C2=O)cc1 (stereo not given),,
> 66 µM (inactive),30.8 µM (inactive),Cc1cc(O)cc(O)c1/C=N/NC(=O)c1ccc2c(c1)OCCO2,,

# Continued, compound first:
SMILES,IC50 [3],IC50 [4],IC50 (H9c2),other results
CN(C)S(=O)(=O)c1ccc(N2CCCC2)c(C(=O)NCc2cccc(C(F)(F)F)c2)c1,,,,IC50 (Protein skinhead-1): > 100 µM (inactive)
O=C(NCc1ccco1)C1CC(c2ccccc2O)=NO1 (stereo not given),,,,EC50 [1]: > 53 µM (inactive)
Cc1sc2nc(NCCO)nc(O)c2c1C,,,> 79 µM (inactive),
Fc1ccc(COc2ccc(-c3nnco3)cc2)c(Cl)c1,,,,IC50 (Protein skinhead-1): 6.56 µM (active)
O=C1/C(=C/c2ccco2)CCc2ccccc21,,,,IC50 (Protein skinhead-1): 31.2 µM (active)
Cc1ccc(-c2nc3cnccn3c2Nc2c(C)cccc2C)o1,> 66 µM (inactive),> 66 µM (inactive),,EC50 [2]: > 195 µM (not active)
O=C(CSc1nc2ccccc2o1)NCc1nnc(O)c2ccccc12,,,8.34 µM (active),
CCCNC(=O)c1ccc2c(O)c(O)c(-c3ccc(F)cc3)nc2c1,,,14.1 µM (active),EC50 [5]: > 150 µM (inactive); EC50 [6]: 7.74 µM (inconclusive); EC50 [7]: 4.47 µM (inconclusive); EC50 [8]: > 38 µM (not active)
CCC(=O)N1c2ccc(S(=O)(=O)CCC(=O)NCc3cccs3)cc2CC1C (stereo not given),,,,IC50 (Protein skinhead-1): > 100 µM (inactive)
CCOC(=O)c1nc(Nc2ccc(C(=O)OC)cc2)c2ccccc2n1,,,> 79 µM (inactive),
Cc1cc(C)nc(N2C(=O)CC(C(C)c3ccccc3)C2=O)n1 (stereo not given),,,,IC50 (Protein skinhead-1): > 100 µM (inactive)
CCCc1nc2ccccc2c(C(=O)OCc2nnc(-c3cc(OC)c(OC)c(OC)c3)o2)c1CC,,,> 79 µM (inactive),
CCCC(=O)Nc1cc(C)c2c(=O)oc3ccccc3c2n1,,,> 79 µM (inactive),
CCCCOc1ccc(-c2nnc(-c3ccco3)o2)cc1,,,,EC50 [9]: > 260 µM (inactive); IC50 (Protein skinhead-1): > 100 µM (inactive)
Clc1ccc(OCCCc2nc(-c3ccncc3)no2)c(Cl)c1,,,,IC50 (Protein skinhead-1): 20.4 µM (active)
Cc1ccc(Cl)cc1N1C(=O)CC(Sc2ncccn2)C1=O (stereo not given),> 66 µM (inactive),> 66 µM (inactive),,
CC(Oc1ccc(Br)cc1)C(=O)N1CCc2ccccc21 (stereo not given),,,,EC50 [1]: 8.32 µM (active)
Cc1nonc1OC(C)CNc1ccc([N+](=O)[O-])cc1 (stereo not given),,,,IC50 (Protein skinhead-1): > 100 µM (inactive)
NC(=O)CC(NC(=O)Cc1cccc2ccccc12)c1ccc(N2CCC(N3CCCCC3)CC2)c([N+](=O)[O-])c1 (stereo not given),,,,IC50 (Protein skinhead-1): > 100 µM (inactive)
CN1CN(c2ccccc2)C2(CCN(CCCSc3ccccc3NC(=O)/C=C/c3ccccc3)CC2)C1=O,,,,EC50 [1]: 6.22 µM (active)
NC(=O)c1cccc(-c2coc3c(C(=O)NCCc4ccccc4)cccc23)c1,,,> 79 µM (inactive),
O=C(N/N=C/c1ccccn1)c1cc(-c2cccc3ccccc23)[nH]n1,,,> 79 µM (inactive),
Oc1ccc(Br)cc1/C=N/c1ccc2[nH]ncc2c1,,,12.6 µM (active),IC50 [10]: 32.1 µM (active)
CC1(C)Oc2ccc3ccc(=O)oc3c2C(/C=N/c2ccccn2)=C1O,,,> 79 µM (inactive),
O=C(N/N=C/c1ccccn1)c1ccc(NC(=O)c2cccc([N+](=O)[O-])c2)cc1,,,> 79 µM (inactive),
